These results are taken from ChEMBL document CHEMBL1201862, “PubChem BioAssay data set” (2004).

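Compound exposure: 48 hours, 5 concentrations, 96-well plates. At the GI50, growth is halved.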 Calls of active or inactive are those of the source. Rule as the data show it: active = GI50 up to about 1.1 µM and inactive = higher.

Test in all cases: NCI anticancer screen, dose series, 48 h
The test system of assay [1] is ACHN.
Assay [2] relates to A498.
Assay [3] relates to HT-29.
Assay [4] has as its system HCT-116.
Assay [5] relates to NCI/ADR-RES.
Assay [6] deals with BT-549.
Assay [7] has as its system RXF 393.
For assay [8], the system named is MOLT-4.
Assay [9] has as its system SNB-75.
For assay [10], the system named is DU-145.
Assay [11] deals with MDA-N.
The subject of assay [12] is CCRF-CEM.
In assay [13] the test system is SNB-19.
Assay [14] relates to LOX IMVI.
Assay [15] has as its system UACC-62.
For assay [16], the system named is OVCAR-3.
Assay [17] has as its system OVCAR-5.
Assay [18] concerns SF-268.
In assay [19] the test system is UO-31.
Assay [20] relates to NCI-H460.

Regarding `COc1cc2c(cc1O)C(c1cc(O)c(O)c(OC)c1)C(O)(C(=O)O)C(CO)C2O` (stereo not given), the GI50 is > 100 µM (inactive) in assay [1]; > 100 µM (inactive) in [2]; > 100 µM (inactive) in assay [3]; 18.3 µM (inactive) in [4]; > 100 µM (inactive) in [5]; > 100 µM (inactive) in assay [6]. The GI50 in assay [7] was > 100 µM (inactive); in assay [8] it was 20.3 µM (inactive); in assay [9], > 100 µM (inactive); in assay [10] it was > 100 µM (inactive); in assay [11], 16.6 µM (inactive); in assay [12] it was 2.62 µM (inactive). Also, the GI50 in assay [13] was > 100 µM (inactive); in assay [14], 17.9 µM (inactive); in assay [15] it was > 100 µM (inactive); in assay [16], > 100 µM (inactive); in assay [17], > 100 µM (inactive); in [18], > 100 µM (inactive). For the same compound, the GI50 in assay [19] and in assay [20] was > 100 µM (inactive) throughout.

Take `CCC(=O)c1cc(C(=O)C(=S)SC)cc(C(=O)C(=S)SC)c1`: the GI50 in [1] is > 87.1 µM (inactive); in assay [2] it was > 100 µM (inactive); in assay [3], > 100 µM (inactive); in assay [4], > 100 µM (inactive); in [5] it was > 100 µM (inactive); in assay [6] it was > 100 µM (inactive). Besides, the GI50 is > 100 µM (inactive) in assay [7]; 12 µM (inactive) in assay [8]; > 100 µM (inactive) in [9]; > 100 µM (inactive) in assay [10]; > 100 µM (inactive) in assay [11]; 3.05 µM (inactive) in assay [12]. Also, the GI50 was > 100 µM (inactive) in [13]; 4.19 µM (inactive) in [14]; > 100 µM (inactive) in assay [15]; > 54.2 µM (inactive) in [16]; > 100 µM (inactive) in assay [17]; > 100 µM (inactive) in [18]. In addition, the GI50 was 48.4 µM (inactive) in [19] and > 100 µM (inactive) in assay [20].

For `CC[C@]12C=CCN3CCC4(c5cc(/N=N/c6ccc([N+](=O)[O-])cc6)c(OC)cc5N(C)[C@H]4[C@@](O)(C(=O)OC)[C@@H]1OC(C)=O)[C@@H]32` (stereo not given in full), the GI50 in [1] is 15 µM (inactive); in [2], 14.1 µM (inactive); in [3], 10.4 µM (inactive); in [4], 10.7 µM (inactive); in [5], 7.18 µM (inactive); in assay [6] it was 72.4 µM (inactive). In addition, the GI50 is 12.5 µM (inactive) in assay [7]; 3.01 µM (inactive) in assay [8]; 9.48 µM (inactive) in assay [9]; 22.8 µM (inactive) in [10]; 12.9 µM (inactive) in assay [11]; 1.77 µM (inactive) in assay [12]. The GI50 was 26.6 µM (inactive) in [13]; 16.3 µM (inactive) in assay [14]; 17.2 µM (inactive) in assay [15]; 4.53 µM (inactive) in assay [16]; 13 µM (inactive) in assay [17]; 16.2 µM (inactive) in [18]. The GI50 was 11.2 µM (inactive) in assay [19] and 19.8 µM (inactive) in assay [20].

`COc1ccc(C[C@@H](CO)NC2=C(C#N)CCC2)cc1`: the GI50 in assay [1] was 49.9 µM (inactive); in assay [2] it was 31.9 µM (inactive); in assay [3], 33.4 µM (inactive); in assay [4], 38.5 µM (inactive); in assay [5], 28.4 µM (inactive); in assay [6] it was 30.4 µM (inactive). For the same compound, the GI50 in [7] is 48.6 µM (inactive); in assay [8], 38.7 µM (inactive); in assay [9] it was 22.2 µM (inactive); in [10], 50.6 µM (inactive); in assay [11], 28.6 µM (inactive); in assay [12], 42.6 µM (inactive). For the same compound, the GI50 in [13] is > 100 µM (inactive); in assay [14] it was 23.7 µM (inactive); in assay [15], 31.5 µM (inactive); in assay [16] it was 36.8 µM (inactive); in assay [17] it was 71.6 µM (inactive); in assay [18], 58.9 µM (inactive). For the same compound, the GI50 is 46 µM (inactive) in assay [19] and 64.7 µM (inactive) in [20].

`O=[N+]([O-])c1ccc2c(c1)C1=NN(c3ccccc3)C(c3ccccc3Br)C1CCC2` (stereo not given): the GI50 in [1] is 22.8 µM (inactive); in [2], 12.1 µM (inactive); in [3] it was 16.1 µM (inactive); in assay [4], 12.4 µM (inactive); in [5], 12.7 µM (inactive); in [6], 13.2 µM (inactive). Further, the GI50 is 14.4 µM (inactive) in [7]; 6.97 µM (inactive) in assay [8]; 42.8 µM (inactive) in assay [9]; 16.3 µM (inactive) in [10]; 17.3 µM (inactive) in [11]; 2.19 µM (inactive) in [12]. Also, the GI50 in assay [13] is 25.7 µM (inactive); in [14], 19.9 µM (inactive); in [15] it was 9.62 µM (inactive); in assay [16], 16.2 µM (inactive); in assay [17], > 50 µM (inactive); in assay [18] it was 21.9 µM (inactive). The GI50 was 20.6 µM (inactive) in assay [19] and 22.6 µM (inactive) in [20].

Turning to `COc1ccccc1NC(=S)N/N=C(/c1ccccc1)c1ccccn1`, the GI50 is 0.0257 µM (active) in [1]; 1.38 µM (inactive) in assay [2]; 0.0101 µM (active) in assay [3]; < 0.0147 µM (active) in assay [4]; 0.0853 µM (active) in [5]; 2.15 µM (inactive) in assay [6]. Also, the GI50 in assay [7] was 1.07 µM (active); in assay [8], < 0.0182 µM (active); in [9], 0.998 µM (active); in assay [10], 0.325 µM (active); in assay [11] it was 0.229 µM (active); in assay [12], 0.0316 µM (active). Also, the GI50 was 2.6 µM (inactive) in [13]; 0.0254 µM (active) in assay [14]; 0.273 µM (active) in [15]; < 0.0143 µM (active) in assay [16]; 0.0635 µM (active) in [17]; 0.144 µM (active) in assay [18]. In addition, the figures for the GI50 in assay [19] and in assay [20] were 0.2 µM (active) and 0.158 µM (active), respectively.

Turning to `C[N+](C)(N)CCC[N+](C)(C)N`, the GI50 in assay [1], in [2], in [3], in [4], in assay [5] and in assay [6] was > 100 µM (inactive) each time. In addition, the GI50 in [7], in assay [8], in assay [9], in assay [10], in assay [11] and in assay [12] was > 100 µM (inactive) in each case. Further, the GI50 in assay [13], in assay [14], in [15], in assay [16], in [17] and in assay [18] was > 100 µM (inactive) throughout. Besides, the GI50 in assay [19] and in [20] was > 100 µM (inactive) throughout.
